Laboratory results taken from US11622955B2, “Sigma-1 receptor agonist systolic blood pressure therapy” (ANAVEX LIFE SCIENCES CORP., priority 2017, dated 2023).
Where a name gives a salt, the structure may show the parent alone.

Key:
[1] = Example 2: maximum diurnal systolic blood pressure, combination with a β1-selective agent; format: in vivo, human; settings: person
Excerpt: “Maximum diurnal” systolic or diastolic BP is a measure of highest systolic or diastolic blood pressure recorded in a 24-hour period. Without being bound by any particular theory, it is believed that a maximal diurnal BP reflects the peak of the natural diurnal blood pressure cycle, typically occurring in the morning, for example between about 5 am and about 11 am. Commonly, a second peak occurs in the evening, for example between about 5 pm and 10 pm. Such a bimodal waveform diurnal ambulatory BP pattern may be especially characteristic of resistant hypertension.
Effect of 50 mg Once Daily Dosage A2-73 Combination Treatment with a β1-Selective Agent.
The subject continues on the metoprolol tartrate, and is started on oral A2-73 at a daily dosage of 50 mg/day for a period of 25 days. Their maximum diurnal systolic blood pressure is then measured at 135 mg Hg and maintained indefinitely with the combined metoprolol tartrate and daily oral dose of 50 mg of A2-73.

[2] = Example 1: 24-hour ambulatory systolic blood pressure in a patient with high SBP; format: in vivo, human; settings: person
Description: Another measure of blood pressure is “24-hour ambulatory” blood pressure. A “24-hour ambulatory” systolic or diastolic BP is an average of systolic or diastolic measurements taken repeatedly in the course of a 24-hour period, in an ambulatory subject.
Effect of 5 mg and 30 mg Once Daily dosage A2-73.
The dose of A2-73 is then increased so that the subject is administered A2-73 daily, at a dosage of 30 mg/day for a period of 25 days. His 24-hour ambulatory systolic blood pressure is then measured at 135 mg Hg and maintained indefinitely with the daily oral dose of 30 mg of A2-73.

[3] = cited from earlier work
[4] = Phase IIa clinical trial in Alzheimer's disease patients, post-hoc evaluation of systolic blood pressure; format: in vivo, human
Description: FIG. 1 is a graph of systolic blood pressure readings of 32 human patients of both sexes, across multiple visits, adjusted for time of BP measurement, gender, age, body mass index, and previous or concurrent use of antihypertensive medication.
BPs were measured at four time points during the study period: 1) the day of screening for enrollment, 2) day one of treatment with either oral or intravenous medication (BP measurements were obtained prior to medication administration), 3) day 25 of treatment (when patients crossed over to receive whichever formulation, oral or intravenous, they had not received previously), and 4) day 36 (conclusion of the PART A of the Phase IIa study). Statistical analyses included paired t-testing comparing changes in BPs across each measurement, as well as multivariable linear mixed effects modeling (adjusted for time of measurement, gender, age, body mass index, and use of antihypertensive medication) to account for within-individual repeated measurements over time.
Thirty-two Alzheimer's disease patients took part in the phase IIa trial. Mean age was 69.5 (standard deviation [SD] 9.8) years, 60% were male, mean body mass index was 26.5 (SD 3.9) kg/m2, and 50% were on antihypertensive medication at the time of screening. […] In multivariable adjusted models (FIG. 1), there was no significant difference in SBP between the first and second readings (p=0.211). […] Of note, no patients reported any changes in their antihypertensive regimen while taking part in the trial.

[5] = Example 3: trough systolic blood pressure, combination with a thiazine diuretic; format: in vivo, human; settings: person
Description: Effect of 10 mg Once Daily Dosage A2-73 Combination Treatment with a Thiazine Diuretic.
The subject continues on the chlorothalidone and is started on oral A2-73 at a daily dosage of 10 mg/day for a period of 25 days. Their trough systolic blood pressure is then measured at 135 mg Hg and maintained indefinitely with the combined chlorothalidone and daily oral dose of 10 mg of A2-73.

[6] = single oral dose, healthy male volunteers

CN(C)CC1CCOC1(c1ccccc1)c1ccccc1.Cl (centres unmarked) [A2-73, tetrahydro-N,N-dimethyl-2,2-diphenyl-3-furanmethanamine hydrochloride]
maximum diurnal systolic blood pressure ([1]; oral A2-73 50 mg/day for 25 days, combined with continued metoprolol tartrate 50 mg twice daily): 135 mg Hg
24-hour ambulatory systolic blood pressure ([2]; 5 mg A2-73 orally once a day): 150 mg Hg
24-hour ambulatory systolic blood pressure ([2]; A2-73 30 mg/day oral for 25 days): 135 mg Hg
observed adverse events ([3]; at the highest doses): moderate and reversible dizziness and headache
blood pressure, resting heart rate, vital signs and 12-lead ECG changes ([3]; in vivo, po): did not show any clinically relevant or dose-dependent changes
pharmacokinetics ([3]; in vivo, po): suitable for daily oral dosing
serious adverse events ([3]; single ascending oral dose, 22 healthy male volunteers): No serious adverse events occurred
maximum tolerable dose [3, 6]: 55 mg
minimum intolerable dose [3, 6]: 60 mg
safety and tolerability of ascending single oral doses ([3]; single oral doses of 1, 10, 30, 40, 50 and 55 mg, healthy subjects): safe and well tolerated
tolerability in human patients ([4]; Phase I and Phase IIa clinical trials): well tolerated
change in SBP, first reading vs other subsequent readings (day 25, day 36) ([4]; multivariable adjusted models (FIG. 1), p=0.048 and 0.008): significant decline in SBP
change in SBP, second measurement (day one, pre-dose) vs all subsequent measurements ([4]; unadjusted analyses, p=0.120 and 0.972 (day 25, day 36)): no significant decline
change in SBP, first measurement vs all subsequent measurements ([4]; unadjusted analyses, paired t-test, p=0.007, 0.001 and 0.007, 32 Alzheimer's disease patients, oral or intravenous): significant decline in SBP
trough systolic blood pressure ([5]; oral A2-73 10 mg/day for 25 days, combined with continued chlorothalidone 25 mg once a day): 135 mg Hg

COCCc1ccc(OCC(O)CNC(C)C)cc1 (racemic) [metoprolol tartrate, (RS)-1-[4-(2-Methoxyethyl)phenoxy]-3-[(propan-2-yl)amino]propan-2-ol, reference compound]
maximum diurnal systolic blood pressure ([1]; metoprolol tartrate 50 mg twice daily, before A2-73): 150 mg Hg

NS(=O)(=O)c1cc(C2(O)NC(=O)c3ccccc32)ccc1Cl (racemic) [chlorothalidone, (RS)-2-Chloro-5-(1-hydroxy-3-oxo-2,3-dihydro-1H-isoindol-1-yl)benzene-1-sulfonamide, reference compound]
trough systolic blood pressure ([5]; chlorothalidone 25 mg orally once a day, before A2-73): 150 mg Hg
